# Experimental data as given in PMC10383801 (Pharmaceutics, 2023).
# Assays:
# [1] = Solubility in n-octanol; assay type: physicochemical; conditions: insulin measured spectrophotometrically at 270 nm, sentence also cites refs 14, 15
# Description: After 4 h of magnetic stirring, the mixture was centrifuged for 30 min at 5000 rpm.
# [2] = tested on: diabetic rats; assay: Antidiabetic effect study in diabetic rats; assay type: in vivo; conditions: streptozotocin-induced diabetic rats; for reduction in blood glucose level (in words): 5 rats per group, glucometer, 0-8 h
# Description: Glucose lowering effect of orally administered optimized SMEDDS was monitored in diabetic rats. Study was performed with the approval Pharmacy Ethical Committee, Bahauddin Zakariya University, Multan, Pakistan (249/PEC/2023 dated 25 March 2023). Diabetes was introduced in rats weighing 220–240 g by injecting streptozotocin solution at the dose of (45 mg/kg body weight) intraperitoneally. Fasting blood glucose (FBG) level of all the rats was measured after 3 days using glucometer (AccuChek Performa, Hoffman-La Roche, Basel, Switzerland). Rats with FBG level 200–250 mg/dL were considered diabetic and were included in the study. All rats were fasted over night before experiment and start of treatment. Diabetic rats were divided randomly in 5 groups with 5 rats per group. […] Blood samples were collected at regular time intervals, i.e., 0, 0.5, 1, 1.5, 2, 3, 4, 6, and 8 h and measured for hypoglycemic effects using glucometer.
# [3] = stated without reference; cited from earlier work
# Description: HIP of peptides with surfactants is an efficient tool to enhance its lipophilic characteristics. […] These six positively charged amino acids (two Histidine, one Arginine, one Lysine and two N-terminal amino aci ...
substance,measurement,setting,value
Human insulin,solubility in n-octanol,[1],~17 µg/mL
same,reduction in blood glucose level (in words),"[2]; oral, 50 IU/kg insulin equivalent",negligible anti-diabetic effect
same,reduction in blood glucose level (in words),"[2]; subcutaneous, 5 IU/kg",Maximum reduction in blood glucose level
same,duration of glucose lowering effect,"[2]; subcutaneous, 5 IU/kg, entire duration of the experiment",up to 8 h
same,isoelectric point,[3],5.35–5.45
